Earlier results, collected in patent US20060188492A1, “Topical management of ocular and periocular conditions” (ChronoRX LLC, an Alaska Limited Liability Company, priority 2005, published 2006).

Key:
lens = details: experimental evidence; compared with the R isomer
[1] = tested on: bovine aortic endothelial cells; details: LA added before endothelial exposure to AGE albumin
[2] = in the presence of glutathione (GSH)

| SMILES | prevention of cataract development (lens) | other results |
| --- | --- | --- |
| O=C(O)CCCCC1CCSS1 (racemic) [racemic mixture, 1,2-dithiolane-3-pentanoic acid] | less than one-half as effective as the R isomer | – |
| O=C(O)CCCCC1CCSS1 (single isomer, unassigned) [S isomer, 1,2-dithiolane-3-pentanoic acid] | not effective | – |
| O=C(O)CCCCC1CCSS1 (centres unmarked) [LA, 1,2-dithiolane-3-pentanoic acid] | – | depletion of GSH and ascorbic acid [1]: completely prevents depletion of GSH and ascorbic acid |
| O=C(O)CCCCC1CCSS1 (stereo not drawn) [R stereoisomer of LA, 1,2-dithiolane-3-pentanoic acid] | can prevent cataract development | – |
| C[C@]12CC[C@@H]3c4ccc(O)cc4CC[C@H]3[C@@H]1CC[C@H]2O [estradiol, 17 α-estradiol] | – | increase of neuroprotective potency [2]: 400 fold |
